Data reported in patent publication US8877754B2, “Compounds, pharmaceutical compositions and uses thereof” (Boehringer Ingelheim International GmbH, priority 2010, dated 2014).

What follows are molecules tested against T1, human ACC2 (Homo sapiens, UniProt O00763) (assay: ACC2 assay, spectrophotometric 384 well assay (NADH-linked, coupled lactate dehydrogenase/pyruvate kinase)). Details: hACC2 construct lacking the 128 N-terminal amino acids; 25° C., 340 nm, 15 minutes.
T1 construct: made in house; host or cells: insect cells, baculoviral expression system
T1 sequence (O00763 129-2458 limits assumed): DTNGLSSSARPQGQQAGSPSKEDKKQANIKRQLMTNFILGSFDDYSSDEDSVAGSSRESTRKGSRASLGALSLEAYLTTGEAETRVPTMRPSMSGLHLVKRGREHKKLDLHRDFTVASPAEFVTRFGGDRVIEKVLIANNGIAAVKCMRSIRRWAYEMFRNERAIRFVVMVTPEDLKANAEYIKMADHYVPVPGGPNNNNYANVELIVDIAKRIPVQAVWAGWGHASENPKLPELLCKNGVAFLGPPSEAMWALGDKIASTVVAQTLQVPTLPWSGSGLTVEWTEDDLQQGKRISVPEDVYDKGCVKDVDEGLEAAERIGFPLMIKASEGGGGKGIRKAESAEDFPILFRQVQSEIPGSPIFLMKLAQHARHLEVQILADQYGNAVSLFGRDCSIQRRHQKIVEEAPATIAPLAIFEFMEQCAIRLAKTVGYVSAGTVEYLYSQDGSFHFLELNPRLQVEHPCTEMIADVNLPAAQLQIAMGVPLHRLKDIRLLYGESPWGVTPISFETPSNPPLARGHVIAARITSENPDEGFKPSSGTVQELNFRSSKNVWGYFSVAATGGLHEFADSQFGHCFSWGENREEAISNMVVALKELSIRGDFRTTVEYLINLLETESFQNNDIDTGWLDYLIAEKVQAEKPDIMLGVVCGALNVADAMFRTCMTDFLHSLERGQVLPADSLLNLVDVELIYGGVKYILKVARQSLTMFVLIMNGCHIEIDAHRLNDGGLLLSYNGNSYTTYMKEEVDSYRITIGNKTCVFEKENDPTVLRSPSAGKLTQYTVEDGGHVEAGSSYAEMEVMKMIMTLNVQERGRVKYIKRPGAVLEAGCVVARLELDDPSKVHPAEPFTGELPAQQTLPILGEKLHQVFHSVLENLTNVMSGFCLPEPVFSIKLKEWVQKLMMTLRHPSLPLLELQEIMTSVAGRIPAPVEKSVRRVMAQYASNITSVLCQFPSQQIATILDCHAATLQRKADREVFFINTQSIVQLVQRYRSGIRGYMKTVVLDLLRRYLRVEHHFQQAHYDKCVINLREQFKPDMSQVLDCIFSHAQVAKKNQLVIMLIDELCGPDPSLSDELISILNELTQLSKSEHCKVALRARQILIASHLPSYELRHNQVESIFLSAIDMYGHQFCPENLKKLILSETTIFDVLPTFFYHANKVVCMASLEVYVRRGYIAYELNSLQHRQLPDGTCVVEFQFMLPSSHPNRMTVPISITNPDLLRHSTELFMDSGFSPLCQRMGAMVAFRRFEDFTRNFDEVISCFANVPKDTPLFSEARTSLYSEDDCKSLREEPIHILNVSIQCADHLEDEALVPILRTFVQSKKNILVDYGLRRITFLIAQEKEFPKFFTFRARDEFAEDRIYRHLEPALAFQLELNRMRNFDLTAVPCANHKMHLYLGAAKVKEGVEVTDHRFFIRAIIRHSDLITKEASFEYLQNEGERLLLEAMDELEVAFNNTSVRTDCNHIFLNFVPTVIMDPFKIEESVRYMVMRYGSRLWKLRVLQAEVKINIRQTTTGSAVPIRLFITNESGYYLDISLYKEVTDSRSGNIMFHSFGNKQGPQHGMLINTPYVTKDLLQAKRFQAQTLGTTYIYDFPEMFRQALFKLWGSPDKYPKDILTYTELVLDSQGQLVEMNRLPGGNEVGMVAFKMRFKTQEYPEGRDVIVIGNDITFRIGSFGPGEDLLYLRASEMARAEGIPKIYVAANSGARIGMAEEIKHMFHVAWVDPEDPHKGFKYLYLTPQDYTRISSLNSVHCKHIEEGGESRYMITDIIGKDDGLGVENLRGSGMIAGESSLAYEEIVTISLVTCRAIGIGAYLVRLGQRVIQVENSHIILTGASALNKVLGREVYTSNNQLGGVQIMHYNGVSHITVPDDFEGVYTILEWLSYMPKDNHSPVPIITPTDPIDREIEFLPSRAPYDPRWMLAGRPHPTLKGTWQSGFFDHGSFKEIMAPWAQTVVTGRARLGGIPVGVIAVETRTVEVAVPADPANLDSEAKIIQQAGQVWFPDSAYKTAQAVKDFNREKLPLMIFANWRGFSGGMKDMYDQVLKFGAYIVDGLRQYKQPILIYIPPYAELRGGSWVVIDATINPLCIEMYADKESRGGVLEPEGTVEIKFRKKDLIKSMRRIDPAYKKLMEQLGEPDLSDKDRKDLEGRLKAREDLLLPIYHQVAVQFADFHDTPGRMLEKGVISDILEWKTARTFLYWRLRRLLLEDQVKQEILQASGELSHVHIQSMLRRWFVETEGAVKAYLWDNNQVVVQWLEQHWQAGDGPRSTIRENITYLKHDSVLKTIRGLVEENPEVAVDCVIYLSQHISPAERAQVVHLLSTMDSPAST
Type: biochemical
Method: Spectrophotometric 384 Well Assay
Malonyl CoA formation by acetyl CoA carboxylases is stoichometrically linked to the consumption of ATP. ACC2 activity is measured in a NADH-linked kinetic method measuring ADP generated during the ACC reaction using a coupled lactate dehydrogenase/pyruvate kinase reaction.
For biological testing, a human ACC2 construct which lacks the 128 amino acids at the N-terminus for increased solubility (nt 385-6966 in Genbank entry AJ575592) is cloned. The protein is then expressed in insect cells using a baculoviral expression system. Protein purification is performed by anion exchange.
All compounds are dissolved in dimethyl sulfoxide (DMSO) to a concentration of 10 mM.
Assay reactions are then carried out in 384-well plates, with hACC2 in an appropriate dilution and at final assay concentrations (f.c.) of 100 mM Tris (pH 7.5), 10 mM trisodium citrate, 25 mM KHCO3, 10 mM MgCl2, 0.5 mg/mL BSA, 3.75 mM reduced L-glutathione, 15 U/mL lactate dehydrogenase, 0.5 mM phosphoenolpyruvate, 15 U/mL pyruvate kinase, compounds at different concentrations at final DMSO concentrations of 1%.
The enzymatic reaction is then started by addition of a mixture of NADH, acetyl Coenzyme A (both 200 μM f.c.) and ATP (500 uM f.c.). The decrease of the optical density (slope S) is then determined at 25° C. at a wavelength of 340 nm over 15 minutes in a spectrophotometric reader.
Each assay microtiter plate contains wells with vehicle instead of compound as controls for the non-inhibited enzyme (100% CTL; ‘HIGH’) and wells without acetyl-CoA as controls for non-specific NADH degradation (0% CTL; ‘LOW’). The slope S is used for calculation of % CTL=(S(compound)−S(‘LOW’))/(S(‘HIGH’)—S(‘LOW’))*100. Compounds will give values between 100% CTL (no inhibition) and 0% CTL (complete inhibition).
For IC50 value determination, the sample slope in the presence of the test compound after subtraction of the low controls (S(compound)−S(‘LOW’)) are used.
An IC50 value is derived from the compound slopes at different dosages after subtraction of the low controls (S(compound)−S(‘LOW’)) by non-linear regression curve fitting (equation y=(A+((B−A)/(1+((C/x)^D))))).

Structure (SMILES) | IC50 [nM]
CCNC(=O)C(C)c1ccc(C#Cc2ccc(COC)cc2)cc1 (stereo not drawn) [Example 7.27] | 10900
CCOc1ccc(C#Cc2ccc(C(C)C(=O)NCc3cnco3)cc2)cc1 (stereo not drawn) [Example 6.24] | 1800
CCOc1ccc(C#Cc2ccc(C(C)C(=O)NC(C)CC)cc2)cc1 (stereo not drawn) [Example 1.13] | 2800
CCNC(=O)C(C)c1ccc(C#Cc2ccc(OC)nc2)cc1 (stereo not drawn) [Example 7.28] | 2900
CCNC(=O)C(C)c1ccc(C#Cc2ccc(OC(C)C)nc2)cc1 (stereo not drawn) [Example 7.29] | 250
CCNC(=O)C(C)c1ccc(C#Cc2cnc(OCCF)nc2)cc1 (stereo not drawn) [Example 3.1, N-Ethyl-2-{4-[2-(2-fluoro-ethoxy)-pyrimidin-5-ylethynyl]-phenyl}-propionamide] | 8400
CCNC(=O)C(C)c1ccc(C#Cc2ccc(OC3CCOCC3)cc2)cc1 (stereo not drawn) [Example 5.2] | 1800
CCNC(=O)C(C)c1ccc(C#Cc2ccc(OCCOCC)cc2)cc1 (stereo not drawn) [Example 5.4] | 1100
CCNC(=O)C(C)c1ccc(C#Cc2ccc(OCc3ccco3)cc2)cc1 (stereo not drawn) [Example 5.1, N-Ethyl-2-{4-[4-(furan-2-ylmethoxy)-phenylethynyl]-phenyl}-propionamide] | 1500
CCNC(=O)C(C)c1ccc(C#Cc2ccnc(Oc3cncnc3)c2)cc1 (stereo not drawn) [Example 7.38] | 2900
CCOc1ccc(C#Cc2ccc(CC(=O)NC)cc2)cc1 [Example 1.6] | 5400
CCOc1ccc(C#Cc2ccc(C(C)C(=O)NCC3CCOC3)cc2)cc1 (stereo not drawn) [Example 6.25] | 12800
CCNC(=O)C(C)c1ccc(C#Cc2cnc(Oc3ccccc3)nc2)cc1 (stereo not drawn) [Example 3.3] | 920
CCNC(=O)C(C)c1ccc(C#Cc2cnc(N(C)C3CC3)nc2)cc1 (stereo not drawn) [Example 2.14] | 6800
CCOc1ccc(C#Cc2ccc(CC(=O)NC3CC3)cc2)cc1 [Example 1.23] | 1000
CCCOc1ccc(C#Cc2ccc(C(C)(C)C(=O)NCC)cc2)cc1 [Example 1.8] | 2400
CCCOc1ccc(C#Cc2ccc(C(C)C(=O)NCC)cc2)c(C)c1 (stereo not drawn) [Example 7.42] | 90
CCOc1ccc(C#Cc2ccc(C(C)C(=O)Nc3nnc(C)o3)cc2)cc1 (stereo not drawn) [Example 6.3] | 830
CCOc1ccc(C#Cc2ccc(C(C)C(=O)NCC#N)cc2)cc1 (stereo not drawn) [Example 1.11] | 660
CCNC(=O)C(C)c1ccc(C#Cc2cnc(OC(C)C)nc2)cc1 (stereo not drawn) [Example 3.4] | 460
CCOc1ccc(C#Cc2ccc(C(C)C(=O)NC3CCOC3)cc2)cc1 (stereo not drawn) [Example 6.9] | 1800
CCNC(=O)C(C)c1ccc(C#Cc2ccc(OCC(C)C)cc2)cc1 (stereo not drawn) [Example 5.3] | 240
CCNC(=O)C(C)c1ccc(C#Cc2cnc(OC)nc2OC)cc1 (stereo not drawn) [Example 7.5] | 4400
CCNC(=O)Cc1ccc(C#Cc2ccc(OCC)cc2)cc1 [Example 1.22] | 3600
CCCCOc1ccc(C#Cc2ccc(C(C)C(=O)NCC)cc2)nn1 (stereo not drawn) [Example 7.37] | 3200
CCOc1ccc(C#Cc2ccc(C(C)C(=O)Nc3ccnn3CC)cc2)cc1 (stereo not drawn) [Example 6.11] | 840
CCNC(=O)C(C)c1ccc(C#Cc2cnc(NC(C)CC)nc2)cc1 (stereo not drawn) [Example 2.6] | 410
CCCNC(=O)C(C)c1ccc(C#Cc2ccc(OCC)cc2)cc1 (stereo not drawn) [Example 1.16] | 610
CCNC(=O)C(C)c1ccc(C#Cc2ccc3cccnc3c2)cc1 (stereo not drawn) [Example 7.8] | 2500
CCNC(=O)C(C)c1ccc(C#Cc2ccc(OCC)nc2)cc1 (stereo not drawn) [Example 7.23] | 560

More lines, in order of falling IC50, values ahead:

IC50 [nM] | Structure (SMILES)
30000 | CCOc1ccc(C#Cc2ccc(CC(=O)N(C)C)cc2)cc1 [Example 1.21]
22500 | CCNC(=O)C(C)c1ccc(C#Cc2ccc(C(=O)Cn3cnc(C)c3)cc2)cc1 (stereo not drawn) [Example 7.21]
18700 | CCOc1ccc(C#Cc2ccc(C(C)C(=O)NC3CCOCC3)cc2)cc1 (stereo not drawn) [Example 6.17]
9700 | CCOc1ccc(C#Cc2ccc(C(C)C(=O)NCCOC)cc2)cc1 (stereo not drawn) [Example 1.12]
8300 | CCOc1ccc(C#Cc2ccc(C(C)C(=O)Nc3ccn[nH]3)cc2)cc1 (stereo not drawn) [Example 6.20]
5400 | CCNC(=O)C(C)c1ccc(C#Cc2ccc(C3CC3)cn2)cc1 (stereo not drawn) [Example 7.33]
5000 | CCNC(=O)C(C)c1ccc(C#Cc2cncc(OC)c2)cc1 (stereo not drawn) [Example 7.14]
4300 | CCOc1ccc(C#Cc2ccc(CCC(=O)NC)cc2)cc1 [Example 1.1, 3-[4-(4-Ethoxy-phenylethynyl)-phenyl]-N-methyl-propionamide]
4000 | CCNC(=O)C(C)c1ccc(C#Cc2ccc(N3CCCCC3=O)cc2)cc1 (stereo not drawn) [Example 7.15]
3300 | CCOc1ccc(C#Cc2ccc(C(C)C(=O)Nc3ncco3)cc2)cc1 (stereo not drawn) [Example 6.7]
1100 | CCNC(=O)C(C)c1ccc(C#Cc2ccn(CC(C)C)c(=O)c2)cc1 (stereo not drawn) [Example 7.34]
1000 | CCNC(=O)C(C)c1ccc(C#Cc2cnn(Cc3ccccc3)c2)cc1 (stereo not drawn) [Example 7.12]
710 | CCNC(=O)C(C)c1ccc(C#Cc2cnc(NC3CCCC3)nc2)cc1 (stereo not drawn) [Example 2.3]
620 | CCOc1ccc(C#Cc2ccc(C(C)C(=O)NC3COC3)cc2)cc1 (stereo not drawn) [Example 6.8]
600 | CCCOc1ccc(C#Cc2ccc(C(C)(C)C(=O)NC3CC3)cc2)cc1 [Example 1.14]
490 | CCCOc1ccc(C#Cc2ccc(C(C)C(=O)NCC)cc2)cn1 (stereo not drawn) [Example 7.47]
440 | CCNC(=O)C(C)c1ccc(C#Cc2ccc(OCCCOC)cc2)cc1 (stereo not drawn) [Example 5.12]

IC50 [nM] | Structure (SMILES)
400 | CCNC(=O)C(C)c1ccc(C#Cc2cnc(OC3CCC3)nc2)cc1 (stereo not drawn) [Example 3.2]
390 | CCNC(=O)C(C)c1ccc(C#Cc2cnc(NC3CC3)nc2)cc1 (stereo not drawn) [Example 2.4]
390 | CCNC(=O)C(C)c1ccc(C#Cc2ccnc(Oc3ccccc3)c2)cc1 (stereo not drawn) [Example 7.45]
380 | CCNC(=O)C(C)c1ccc(C#Cc2cccc(OCc3ccccc3)c2)cc1 (stereo not drawn) [Example 7.11]
270 | CCNC(=O)C(C)c1ccc(C#Cc2cnc(N3CC4CCCC4C3)nc2)cc1 (stereo not drawn) [Example 2.11]
250 | CCNC(=O)C(C)c1ccc(C#Cc2ccc(OCC(C)F)cc2)cc1 (stereo not drawn) [Example 5.19]
230 | CCOc1ccc(C#Cc2ccc(C(C)C(=O)Nc3cc(C)nn3C)cc2)cc1 (stereo not drawn) [Example 6.1, N-(2,5-Dimethyl-2H-pyrazol-3-yl)-2-[4-(4-ethoxy-phenylethynyl)-phenyl]-propionamide]
220 | CCOc1ccc(C#Cc2ccc(C(C)C(N)=O)cc2)cc1 (stereo not drawn) [Example 1.9]
170 | CCNC(=O)C(C)c1ccc(C#Cc2ccc(OCCn3cccc3)cc2)cc1 (stereo not drawn) [Example 5.7]
120 | CCOc1ccc(C#Cc2ccc(C(C)C(=O)NC3CC3)cc2)cc1 (stereo not drawn) [Example 1.17]
110 | CCNC(=O)C(C)c1ccc(C#Cc2ccc(OC3CCC3)cc2)cc1 (stereo not drawn) [Example 7.3]
110 | CCNC(=O)C(C)c1ccc(C#Cc2ccc(OC3CCCC3)cc2)cc1 (stereo not drawn) [Example 7.46]
110 | CCNC(=O)C(C)c1ccc(C#Cc2ccc(OCCC(F)(F)F)cc2)cc1 (stereo not drawn) [Example 5.14]
90 | CCNC(=O)C(C)c1ccc(C#Cc2ccc(OCC3CC3(F)F)cc2)cc1 (stereo not drawn) [Example 5.20]
90 | CCNC(=O)C(C)c1ccc(C#Cc2ccc(OCC)cc2)cc1 (stereo not drawn) [Example 1.5]
70 | CCCOc1ccc(C#Cc2ccc(C(C)C(=O)NCC)cc2)cc1 (stereo not drawn) [Example 7.25]
